Data published in publication doi:10.1101/2025.03.14.643404, “A Bivalent Molecular Glue Linking Lysine Acetyltransferases to Oncogene-induced Cell Death” (bioRxiv, 2025).

Columns and labels:
CBP^BD-BCL6^BTB = experiment: TR-FRET ternary assay CBPBD-BCL6BTB; type: binding, human
Method: 10 μL reactions containing 10 nM 6x-His- p300^BD or 6x-His-CBP^BD, 200 nM BiotinylatedAvi-BCL6^BTB, 20 nM streptavidin-FITC (SA1001, Thermo), and 1:400 anti-6x-His-terbium (PerkinElmer 61HI2TLF) in buffer containing 20 mM HEPES pH 7.5, 150 mM NaCl, 0.1% BSA, 0.1% NP-40, and 1 mM TCEP were plated in low-volume 384 well plates. Drugs were digitally dispensed (Tecan D300e) into protein-containing wells, and the plate was allowed to incubate in the dark for 1 hour at room temperature. Emission at 490 nm (terbium) and 520 nm (FITC) was measured on a PHERAstar FS plate reader (BMG Labtech) upon excitation with 337 nm. The ratio of signal at 520 nm to 490 nm was calculated and normalized to DMSO-treated protein.

BRPF1 = target: T1, BRPF1 (Homo sapiens, UniProt P55201); experiment: BROMOscan binding to recombinant human bromodomains; conditions: 10 μM
T1 construct: purchased BROMOscan (service)

H3K27ac = experiment: ChIP-seq for H3K27ac in SUDHL5; type: cell-based, human; conditions: SUDHL5, 1 nM, 1 hour
Method: 25–30 million cells were treated with TCIP3 or DMSO for indicated timepoints. Cells were washed in PBS containing TCIP3 or DMSO and crosslinked for 11 min in CiA Fix Buffer (50 mM HEPES pH 8.0, 1 mM EDTA, 0.5 mM EGTA, 100 mM NaCl) with addition of formaldehyde to a final concentration of 1%. The crosslinking reaction was quenched by glycine added at 0.125 M final concentration. Crosslinked cells were centrifuged at 1,000 × g for 5 min. […] Library size distributions were confirmed using an Agilent Bioanalyzer and High Sensitivity DNA reagents (Agilent 5067) and concentrations determined by qPCR. […]
The data quality was checked using fastq (https://www.bioinformatics.babraham.ac.uk/projects/fastqc/). The raw reads were trimmed from adapters with cutadapt (parameters: -a […] -A […]) and raw reads were aligned to hg38 human genome assembly using bowtie2 (parameters: --local --maxins 1000). Low quality reads, duplicated reads and reads with multiple alignments were removed using samtools[120] and Picard (https://broadinstitute.github.io/picard/). macs2[121] was used to map position of peaks with FDR cutoff of 0.05. […] All browser tracks and metaprofiles shown were calculated with sequence-depth-normalized, replicate-merged (bigWigMerge[125]) and, for ChIP-seq, input-subtracted data (deeptools bigWigCompare). […]

BBC3/PUMA = experiment: Western blot of BBC3/PUMA in SUDHL5; type: cell-based, human; conditions: SUDHL5, 48 hours
Method: Cells were plated at 1M/mL and treated with drug at indicated timepoints and doses. Cells were harvested on ice in RIPA buffer (50mM Tris-HCl pH 8, 150mM NaCl, 1% NP-40, 0.1% DOC, 1% SDS, protease inhibitor cocktail (~20 mg/ml pepstatin, aprotinin, and leupeptin), 1mM DTT) and 1:200 benzonase (Sigma E1014) was added and incubated for 20 mins. After 10 min centrifugation at 14,000g and 4 °C, the supernatant was collected and protein concentration was measured by Bradford. SDS-PAGE analysis was carried out in either 4–12% or 12% Bis-Tris PAGE gels (Thermo NW04120 and NW04127). Antibodies used for immunoblots were: BCL6 (1:1000 v:v, Cell Signaling D65C10), p300 (1:250, Santa Cruz F-4 sc-48343), CBP (1:1000, Cell Signaling D6C5), c-MYC (1:1000, Cell Signaling D84C12), Caspase-3 (1:1000, Cell Signaling 9662), GAPDH (1:2000, Santa Cruz 6C5 sc-32233), BBC3/PUMA (1:1000, Cell Signaling E2P7G), FOXO3 (1:1000, Cell Signaling 75D8), H3K27ac (1:1000, abcam ab4729), H2BK20ac (1:1000, Cell Signaling D709W), H3 (1:10,000, Cell Signaling 1B1B2), H2B (1:10,000, Cell Signaling D2H6), p27/CDKN1B (1:1000, Cell Signaling D69C12), and TP53 (1:1000, Santa Cruz DO-1). ImageStudio (Licor) was used for blot imaging and quantification.

T1 sequence (P55201 628-732 limits assumed): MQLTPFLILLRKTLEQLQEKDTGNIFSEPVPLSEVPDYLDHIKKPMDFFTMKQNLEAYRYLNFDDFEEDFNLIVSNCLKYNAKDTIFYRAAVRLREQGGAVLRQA

For CNC(=O)COc1cc2cc(Nc3nc(N4CCC(C(=O)N5CCN(CCC(=O)N6CCC(n7nc(N8CCCc9cc(-c%10cnn(C)c%10)c(C(F)F)cc98)c8c7CCN(C(=O)NC)C8)CC6)CC5)CC4)ncc3Cl)cc(OC)c2n(C)c1=O [TCIP3], the “TR-FRET signal AUC, times higher than NEG1” value (CBP^BD-BCL6^BTB) was 16 times, the “TR-FRET signal AUC, times higher than NEG2” value (CBP^BD-BCL6^BTB) was 25 times and the “bromodomain selectivity” value (BRPF1) was “may also engage BRPF1 at high compound concentrations”. The H3K27ac peaks gained (H3K27ac) was 533, the H3K27ac peaks lost (H3K27ac) was 5,216 and the PUMA expression increase (BBC3/PUMA) was “more than 6 fold”.
